Reference: patent US10570179B2, “Substituted urea depsipeptide analogs as activators of the CLPP endopeptidase” (priority 2016, dated 2020)
In brackets after ≈: the same amount, converted by molar mass. Where two headings read alike, the source gives them in different places. Numbered stars: 1 amine (or outer) side, 2 acyl side, 3 side chain; on linkers, the order of the positions; unused ones are H or OH. Bridge positions count the residues as written; N and C are the ends. Square brackets hold non-standard residues; d marks the D form. Peptide text beside a SMILES is read from it. * marks the point of attachment. Phe(3-Me) = Cc1cccc(C[C@H](N)C(=O)O)c1; Hyp = O=C(O)[C@@H]1C[C@@H](O)CN1; NH(3-Cl-phenyl) = Clc1cccc(N*)c1; aThr = C[C@H](O)[C@H](N)C(=O)O; Pip = O=C(O)[C@@H]1CCCCN1; CO = O=C([*:1])[*:2]

Columns and labels:
[1] = system: S. aureus ΔClpP; experiment: Minimal inhibitory concentration, microbroth dilution; assay type: cell-based, Staphylococcus aureus; conditions: MIC; ClpP inactivated
Method: (§1) Minimal inhibitory concentrations (“MICs”) were determined using the microbroth dilution method according to Clinical Laboratory Standards Institute (CLSI; National, C.F. C. L. S., Methods for Dilution Antimicrobial Susceptibility Tests for Bacteria Grow aerobically-Seventh Edition: Approved Standard M7-A7, CLSI, Wayne, Pa., USA, 2008) and were read by visual inspection. Two fold serial dilutions of test compound in 100 μL of the appropriate broth media were first prepared in 96-well round bottom microtiter plates (Nalgene Nunc International, Rochester, N.Y., USA). An equivalent volume (100 μL) of bacterial broth inocula containing approximately 10^5 bacterial cfu/mL was added to each well to give final concentrations of test compound starting at 200 μM. The plates were then incubated aerobically at 37° C. All strains were incubated overnight. After incubations, in all cases the MIC was recorded as the lowest concentration of drug that prevented bacterial growth. The bacterial strains for which MIC was determined as described in Table 4.

[2] = target: T1, S. aureus ClpP (Sa-ClpP) (Staphylococcus aureus, UniProt Q2G036); experiment: Casein-BODIPY digestion assay (ClpP activation); assay type: biochemical
T1 construct: made in house; host or cells: E. coli BL21 (DE3)
T1 sequence (Q2G036 whole entry): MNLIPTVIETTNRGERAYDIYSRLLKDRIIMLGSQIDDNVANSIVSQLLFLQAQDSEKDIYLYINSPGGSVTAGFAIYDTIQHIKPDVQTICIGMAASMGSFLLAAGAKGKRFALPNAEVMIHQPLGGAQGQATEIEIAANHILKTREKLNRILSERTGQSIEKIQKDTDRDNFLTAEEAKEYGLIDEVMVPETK
Method: The compounds were assayed in a casein digestion assay in order to determine their effect on ClpP activation. Briefly, the assay was carried out using S. aureus ClpP (“Sa-ClpP”) overexpressed in E. coli BL21 (DE3) and purified in a two-step process. Purity of the protein was assessed through SDS PAGE analysis. EC50 evaluations were conducted in triplicate in a 20 μl assay format using a method adapted from Maurizi et al. (Methods Enzymol. (1994) 244:314-331). Each well contained 10 μM saClpP, 25 μg/ml BODIPY FL casein (Invitrogen Corporation, San Diego, Calif.), and test compound in concentrations ranging between 0-1000 μM in assay buffer (50 mM Tris pH 8, 200 mM KCl, and 1 mM TCEP). The reaction took place at 37° C. Fluorescence (excitation 485 nm; emission 528 nm) was measured in five minute intervals over a 45 min period using a BioTek HT fluorescence microplate reader (BioTek Instruments, Inc., Winooski, Vt.). Velocity of each reaction was calculated and data was fit to a dose response curve using GraphPad Prism® software (GraphPad Software, Inc., La Jolla, Calif.). EC50 is the effective concentration of compound which causes 50% activation of S. aureus ClpP in the foregoing BODIPY FL casein assay.
Alternatively, the assay was carried out using EnzCheck Protease Assay (Molecular Probes, Catalog # E6638). The assay was performed in black 384 well, flat bottom, low volume plates (Greiner Bio-One, Monroe, N.C., catalog #784076). 10 μL of Tris.HCl buffer, pH 8.0 with 0.01% Triton X-100 was pipetted into each well using a Well-Mate (Thermo Scientific, Waltham, Mass.). 0.4 μL test compounds or controls (2% DMSO v/v) were added to each well using a Biomek FX liquid handling robot (Beckman Coulter, Indianapolis, Ind.). After addition of test compounds and controls, 10 μL of master mix containing 2 μM Sa-ClpP and 2 μM substrate (Bodipy-FL labeled casein) in Tris.HCl buffer, pH 8.0 with 0.01% (v/v) Triton X-100, was pipetted into each well. All assays were performed in triplicate, under linear velocity conditions. Increase in fluorescent signal following activation of Sa-ClpP by test compounds and controls was measured over time period of 30 mins using filters with excitation at 485±15 nm and emission at 520±25 nm on a PHERAstar FS Multilabel reader (BMG, Cary, N.C.). Instrument gains and enzyme linear velocity conditions were determined and validated using ADEP4, a known Sa-ClpP activator. Data analysis was done by measuring rate of casein degradation over time (slopes). Computed degradation rates (slopes) were normalized to positive (ADEP4) or negative (DMSO) controls. Using nonlinear regression curve fitting EC50 values and % activation were determined using the equation “log [agonist] vs. Response-variable slope (four parameters)-symmetrical” in the program Prism 6 (GraphPad Software, La Jolla, Calif. USA, www.graphpad.com).

[3] = system: S. aureus ATCC 29213; experiment: Minimal inhibitory concentration, microbroth dilution; assay type: cell-based; conditions: Staphylococcus aureus
Method: as §1

[4] = system: E. faecails; experiment: as above; assay type: cell-based; conditions: Enterococcus faecalis
Method: as §1

[5] = system: MRSA NRS70; experiment: as above; assay type: cell-based; conditions: Staphylococcus aureus
Method: as §1

[6] = system: S. aureus USA 300; experiment: as above; assay type: cell-based; conditions: Staphylococcus aureus
Method: as §1

[7] = ATCC29213, MIC, read-out: Minimal Inhibitory Concentrations (μM) S. aureus ATCC 29213
[8] = MIC, read-out: Minimal Inhibitory Concentrations (μM) E. faecails
[9] = MIC, read-out: Minimal Inhibitory Concentrations (μM) MRSA NRS70
[10] = USA300, MIC, read-out: Minimal Inhibitory Concentrations (μM) S. aureus USA 300
[11] = ATCC29213, read-out: Minimal Inhibitory Concentrations (μM) S. aureus ATCC 29213, MIC
[12] = read-out: Minimal Inhibitory Concentrations (μM) E. faecails, MIC
[13] = read-out: Minimal Inhibitory Concentrations (μM) MRSA NRS70, MIC
[14] = USA300, read-out: Minimal Inhibitory Concentrations (μM) S. aureus USA 300, MIC

Structure (SMILES) | Minimal Inhibitory Concentrations (μM) S. aureus ΔClpP [1] [µM] | EC50 [2] [µM] | MIC [3, 7] [µM] | MIC [4, 8] [µM] | MIC [5, 9] [µM] | MIC [6, 10] [µM] | MIC [3, 11] [µM] | MIC [4, 12] [µM] | MIC [5, 13] [µM] | MIC [6, 14] [µM]
CCc1ccc(NC(=O)N[C@@H](Cc2cccc(C)c2)C(=O)N[C@H]2COC(=O)[C@@H]3C[C@H](C)CN3C(=O)[C@H](C)NC(=O)[C@@H]3CCCCN3C(=O)[C@@H]3CCCN3C2=O)cc1 [Compound 52, (S)—N-((2S,6S,8AS,14AS,20S,23AS)-2,6-DIMETHYL-5,8,14,19,23-PENTAOXOOCTADECAHYDRO-1H,5H,14H,19H-PYRIDO[2,1-I]DIPYRROLO[2,1-C:2′,1′-L][1]OXA[4,7,10,13]TETRAAZACYCLOHEXADECIN-20-YL)-2-(3-(4-ETHYLPHENYL)UREIDO)-3-(M-TOLYL)PROPANAMIDE] | >20 | 0.22 ± 0.1 | 0.625 (≈ 0.491 µg/mL) | 0.313 (≈ 0.246 µg/mL) | 0.313 (≈ 0.246 µg/mL) | 0.625 (≈ 0.491 µg/mL) |  |  |  | 
Cc1cccc(C[C@H](NC(=O)Nc2ccc(Cl)cc2)C(=O)N[C@H]2COC(=O)[C@@H]3C[C@H](C)CN3C(=O)[C@H](C)NC(=O)[C@@H]3CCCCN3C(=O)[C@@H]3CCCN3C2=O)c1 [Compound 53, (S)-2-(3-(4-CHLOROPHENYL)UREIDO)-N-((2S,6S,8AS,14AS,20S,23AS)-2,6-DIMETHYL-5,8,14,19,23-PENTAOXOOCTADECAHYDRO-1H,5H,14H,19H-PYRIDO[2,1-I]DIPYRROLO[2,1-C:2′,1′-L][1]OXA[4,7,10,13]TETRAAZACYCLOHEXADECIN-20-YL)-3-(M-TOLYL)PROPANAMIDE] | >20 | 0.67 ± 0.3 |  |  |  |  | 1.25 (≈ 0.99 µg/mL) | 5 (≈ 3.96 µg/mL) | 1.25 (≈ 0.99 µg/mL) | 2.5 (≈ 1.98 µg/mL)
Cc1cccc(C[C@H](NC(=O)Nc2cccc(Cl)c2)C(=O)N[C@H]2COC(=O)[C@@H]3C[C@H](C)CN3C(=O)[C@H](C)NC(=O)[C@@H]3CCCCN3C(=O)[C@@H]3CCCN3C2=O)c1 [Compound 54, (S)-2-(3-(3-CHLOROPHENYL)UREIDO)-N-((2S,6S,8AS,14AS,20S,23AS)-2,6-DIMETHYL-5,8,14,19,23-PENTAOXOOCTADECAHYDRO-1H,5H,14H,19H-PYRIDO[2,1-I]DIPYRROLO[2,1-C:2′,1′-L][1]OXA[4,7,10,13]TETRAAZACYCLOHEXADECIN-20-YL)-3-(M-TOLYL)PROPANAMIDE] | >20 | 1.54 ± 1.4 |  |  |  |  | > 20 | 10 (≈ 7.92 µg/mL) | 5 (≈ 3.96 µg/mL) | > 20
CCc1ccc(NC(=O)N[C@@H](Cc2cccc(C)c2)C(=O)N[C@H]2COC(=O)[C@@H]3CCCN3C(=O)[C@H](C)NC(=O)[C@@H]3CCCCN3C(=O)[C@@H]3C[C@@H](O)CN3C2=O)cc1 [Compound 55, (S)-2-(3-(4-ETHYLPHENYL)UREIDO)-N-((6S,8AS,14AS,16R,20S,23AS)-16-HYDROXY-6-METHYL-5,8,14,19,23-PENTAOXOOCTADECAHYDRO-1H,5H,14H,19H-PYRIDO[2,1-I]DIPYRROLO[2,1-C:2′,1′-L][1]OXA[4,7,10,13]TETRAAZACYCLOHEXADECIN-20-YL)-3-(M-TOLYL)PROPANAMIDE] | >20 | 1.05 ± 1 | 5 (≈ 3.94 µg/mL) | 2.5 (≈ 1.97 µg/mL) | 2.5 (≈ 1.97 µg/mL) | 2.5 (≈ 1.97 µg/mL) |  |  |  | 
Cc1cccc(C[C@H](NC(=O)Nc2cccc(Cl)c2)C(=O)N[C@@H]2C(=O)N3C[C@H](O)C[C@H]3C(=O)N3CCCC[C@H]3C(=O)N[C@@H](C)C(=O)N3CCC[C@H]3C(=O)O[C@H]2C)c1 [Compound 60, (S)-2-(3-(3-CHLOROPHENYL)UREIDO)-N-((6S,8AS,14AS,16R,20S,21S,23AS)-16-HYDROXY-6,21-DIMETHYL-5,8,14,19,23-PENTAOXOOCTADECAHYDRO-1H,5H,14H,19H-PYRIDO[2,1-I]DIPYRROLO[2,1-C:2′,1′-L][1]OXA[4,7,10,13]TETRAAZACYCLOHEXADECIN-20-YL)-3-(M-TOLYL)PROPANAMIDE] ({NH(3-Cl-phenyl)-CO}-[Phe(3-Me)][aThr][Hyp][Pip]AP; ester 2-C) |  | 1.47 ± 1.1 |  |  |  |  | > 20 | > 20 | 5 (≈ 4.04 µg/mL) | 10 (≈ 8.08 µg/mL)
